ChEMBL document CHEMBL4831514, “Novel betulin dicarboxylic acid ester derivatives as potent antiviral agents: Design, synthesis, biological evaluation, structure-activity relationship and in-silico study” (Eur J Med Chem, 2021)
The source made the active and inactive calls. The rule behind the calls is not given here.

Key:
[1] = tested on: Enterovirus E; assay: Antiviral activity against Enterovirus E LCR-4 infected in A549 cells assessed as inhibition of viral adsorption at early stage of replication treated for 1 hr during viral infection followed by replacement with fresh medium and measured after 72 hrs by MTT assay; assay type: functional, organism-based
[2] = tested on: Human adenovirus 5; assay: Antiviral activity against Human adenovirus 5 Adenoid 75 infected in A549 cells assessed as inhibition of viral adsorption at early stage of replication treated for 1 hr during viral infection followed by replacement with fresh medium and measured after 72 hrs by MTT assay; assay type: functional, organism-based
[3] = tested on: Vesicular stomatitis virus; assay: Antiviral activity against Vesicular stomatitis virus Indiana infected in A549 cells assessed as reduction in virus titer preincubated for 24 hrs followed by viral infection and measured after 72 hrs by microscopic analysis; assay type: functional, organism-based
[4] = tested on: Human adenovirus 5; assay: Antiviral activity against Human adenovirus 5 Adenoid 75 infected in A549 cells assessed as reduction in virus titer preincubated for 24 hrs followed by viral infection and measured after 72 hrs by microscopic analysis; assay type: functional, organism-based
[5] = (§1) Selectivity index, ratio of CC50 for cytotoxicity against human A549 cells to EC50 for antiviral activity against Enterovirus E LCR-4 infected in A549 cells assessed as reduction in virus titer treated 1 hr post viral infection followed by replacement with fresh medium with compounds and measured after 72 hrs by MTT assay; assay type: toxicity, cell-based; details: read-out: Selectivity Index
[6] = tested on: Human alphaherpesvirus 1; assay: Antiviral activity against Human herpesvirus-1 MacIntyre infected in A549 cells assessed as inhibition of viral adsorption at early stage of replication treated for 1 hr during viral infection followed by replacement with fresh medium and measured after 48 hrs by MTT assay; assay type: functional, organism-based
[7] = tested on: Enterovirus E; assay: Antiviral activity against Enterovirus E LCR-4 infected in A549 cells assessed as reduction in virus titer treated 1 hr post viral infection followed by replacement with fresh medium with compounds and measured after 72 hrs by MTT assay; assay type: functional, organism-based; details: LCR-4, A549
[8] = tested on: MDCK; assay: Cytotoxicity against MDCK cells assessed as reduction in cell viability incubated for 72 hrs by MTT assay; assay type: cell-based, Canis lupus familiaris; details: dog, mdck, 72 h
[9] = tested on: Enterovirus E; assay: as §1, with “Potency” for “Selectivity”, “ribavirin EC50” for “CC50 for cytotoxicity against human A549 cells”, “to test compound” for “to”; assay type: functional
[10] = tested on: Human alphaherpesvirus 1; assay: Antiviral activity against Human herpesvirus 1 MacIntyre infected in A549 cells assessed as reduction in virus titer preincubated for 24 hrs followed by viral infection and measured after 72 hrs by microscopic analysis; assay type: functional, organism-based
[11] = (§2) Cytotoxicity against human A549 cells assessed as reduction in cell viability incubated for 48 hrs by MTT assay; assay type: cell-based; details: A549 cells
[12] = tested on: A549; assay: as §2; assay type: cell-based; details: a549, 48 h
[13] = Selectivity index, ratio of CC50 for cytotoxicity against human A549 cells to EC50 for antiviral activity against Enterovirus E LCR-4 infected in A549 cells; assay type: toxicity, cell-based; details: read-out: Selectivity Index
[14] = as §1, with “Human herpesvirus 1 MacIntyre” for “Enterovirus E LCR-4”; assay type: toxicity, cell-based; details: read-out: Selectivity Index
[15] = tested on: Human alphaherpesvirus 1; assay: Antiviral activity against Human herpesvirus 1 MacIntyre infected in A549 cells assessed as reduction in virus titer treated 1 hr post viral infection followed by replacement with fresh medium with compounds and measured after 48 hrs by MTT assay; assay type: functional, organism-based; details: Human alphaherpesvirus 1, MacIntyre
[16] = tested on: Enterovirus E; assay: Antiviral activity against Enterovirus E LCR-4 infected in A549 cells assessed as reduction in virus titer preincubated for 24 hrs followed by viral infection and measured after 72 hrs by microscopic analysis; assay type: functional, organism-based; details: LCR-4, A549
[17] = tested on: Enterovirus E; assay: Potency index, ratio of […] EC50 to test compound EC50 for antiviral activity against Enterovirus E LCR-4 infected in A549 cells assessed as reduction in virus titer preincubated for 24 hrs followed by viral infection and measured after 72 hrs by microscopic analysis; assay type: functional; details: time 96 hrs

Structure (SMILES)	Activity [1]	Activity [2]	Activity [3]	Activity [4]	selectivity ratio at 72 h [5]	Activity [6]	EC50 [7] [µM]	CC20 [8] [µM]	Ratio EC50 [9]	Activity [10]	CC50 at 48 h [11] [µM]	CC20 [12] [µM]	selectivity ratio [13]	selectivity ratio at 72 h [14]	EC50 [15] [µM]	EC50 [16] [µM]	Ratio EC50 [17]
C=C(C)[C@@H]1CC[C@]2(COC(=O)/C=C(\C)C(=O)N3CCOCC3)CC[C@]3(C)[C@H](CC[C@@H]4[C@@]5(C)CC[C@H](O)C(C)(C)[C@@H]5CC[C@]43C)[C@@H]12	inactive	inactive	inactive	inactive	3	inactive	37.8	37.82	3	inactive	114	37.82	–	–	–	–	–
Nc1nc2c(ncn2COCCO)c(=O)[nH]1 [ACYCLOVIR]	inactive	inactive	–	–	–	inactive	–	–	–	–	1560	196.08	7	14	111	–	–
C=C(C)[C@@H]1CC[C@]2(COC(=O)c3cccc(C(=O)N4CCCCC4)c3)CC[C@]3(C)[C@H](CC[C@@H]4[C@@]5(C)CC[C@H](O)C(C)(C)[C@@H]5CC[C@]43C)[C@@H]12	inactive	inactive	inactive	inactive	–	inactive	–	130.89	–	inactive	536	130.89	8.2	–	–	65.4	3
C=C(C)[C@@H]1CC[C@]2(COC(=O)CCCCCCCCCC(=O)O)CC[C@]3(C)[C@H](CC[C@@H]4[C@@]5(C)CC[C@H](O)C(C)(C)[C@@H]5CC[C@]43C)[C@@H]12	inactive	inactive	inactive	inactive	2.9	inactive	10.3	10.2	10	inactive	29.4	5.09	–	–	–	–	–
NC(=O)c1ncn([C@@H]2O[C@H](CO)[C@@H](O)[C@H]2O)n1 [RIBAVIRIN]	inactive	inactive	–	–	74.3	inactive	102	–	–	–	7610	409.84	–	–	–	–	–
C#CCNC(=O)c1ccccc1C(=O)OC[C@]12CC[C@@H](C(=C)C)[C@@H]1[C@H]1CC[C@@H]3[C@@]4(C)CC[C@H](O)C(C)(C)[C@@H]4CC[C@@]3(C)[C@]1(C)CC2	inactive	inactive	inactive	inactive	–	inactive	–	159.24	–	inactive	159	39.81	8	–	–	19.9	11
